Experimental data taken from patent US7020578B2, “Method for evaluating novel, stroke treatments using a tissue risk map” (The General Hospital Corporation, priority 2000, dated 2006).

Key:
Assay type in all cases: in vivo, human
[1] = GLM risk map of infarction from initial DWI/PWI compared with final infarct on follow-up imaging in bFGF trial patients; conditions: Patient 7; full dose (150 ug/kg); 19 day follow-up FLAIR
Description: A generalized linear model (GLM) of risk of tissue infarction was generated from retrospective studies of hyperacute cerebral ischemia patients who received diffusion and perfusion weighted imaging within twelve hours of presenting with symptoms. Only patients with cortical infarcts caused by occlusion of major cerebral arteries were included in the training data. […] The volumetric diffusion and perfusion data were coregistered utilizing an automated image registration software package (AIR 3.08). Utilizing a supervised learning algorithm and logistic regression, the parameters for the GLM were computed using coregistered data sets, as described in the previous section.
In one embodiment, a GLM algorithm is used to model tissue outcome. Tissue outcome y can be modeled as a binary variable (normal/abnormal) and therefore a Bernoulli probability density function assumed for its distribution. The logistic function can then be used to compute y as set forth below in Equation 1: [formula] where y is an estimate of the risk of infarction, x represents an input vector that can include an initial T2, ADC, rCBF (relative cerebral blood flow), rCBV (relative cerebral blood volume) and MTT (mean transmit time) data and B the calculated coefficients.
The dose of bFGF was correlated with the positive predictive value (PPV) of the GLM model described in the previous section. […]

[2] = phase I/II double-blind, randomized, placebo-controlled, dose-escalation trial of intravenous bFGF (FIBLAST) in stroke patients; change in NIH Stroke Scale score, admission vs discharge; conditions: Patient 9*; 3 μg/kg; NIH SS (Initial) 2; follow-up 3 days
[3] = as above; conditions: for number of treated patients with ΔNIH SS < 4 / number of treated patients with ΔNIH SS ≧ 4 (improved outcome): 2 × 2 contingency table
Method: Sixty-six patients were entered into a phase I/II trial of basic fibroblast growth factor (bFGF), FIBLAST. This trial was a double-blind, randomized, placebo-controlled, dose-escalation, and three month follow-up study of intravenous infusion of basic fibroblast growth factor (bFGF). Patients were randomized either to placebo or one of six different doses of bFGF ranging from […] to 150 μg/kg. Eleven patients were enrolled at Massachusetts General Hospital (MGH). Each patient underwent MRI imaging according to the standard MGH protocol within the first ten hours of symptom onset, and follow-up imaging at discharge.
The primary efficacy measure was change in NIH Stroke Scale (NIHSS) score measured at admission compared to that reported at discharge. Patients were classified as having an improved outcome if the NIH SS score decreased by more than four points. Two by two contingency tables were computed for the placebo versus the bFGF treated patients and a Fisher's Exact test performed.
Patients with greater than a four point change on the NIH SS score were classified as having a favorable outcome. A 2×2 contingency table, shown in Table 4, was evaluated for statistical independence between treated and placebo groups using Fisher's exact test.

[4] = patients enrolled at MGH, all doses pooled
[5] = subset of 7 patients evaluated with GLM models

Substance: basic fibroblast growth factor [bFGF]
- outcome of penumbra predicted at risk of infarction by the risk map, on follow-up FLAIR [1]: does not go on to infarction
- NIH SS (Discharge) [2]: 2
- number of treated patients with ΔNIH SS < 4 [3, 4]: 4
- number of treated patients with ΔNIH SS ≧ 4 (improved outcome) [3, 4]: 4
- number of treated patients with ΔNIH SS < 4 [3, 5]: 1
- number of treated patients with ΔNIH SS ≧ 4 (improved outcome) [3, 5]: 4
- NIH SS (Discharge) ([3]; Patient 3, 9 μg/kg, NIH SS (Initial) 15, follow-up 7 days): 5
- NIH SS (Discharge) ([3]; Patient 4, 27 μg/kg, NIH SS (Initial) 15, follow-up 7 days): 11
- NIH SS (Discharge) ([3]; Patient 5, 75 μg/kg, NIH SS (Initial) 6, follow-up 4 days): 1
- NIH SS (Discharge) ([3]; Patient 6, 150 μg/kg, NIH SS (Initial) 16, follow-up 13 days): 14
- NIH SS (Discharge) ([3]; Patient 7, 150 μg/kg, NIH SS (Initial) 17, follow-up 19 days): 12
- NIH SS (Discharge) ([3]; Patient 8*, 75 μg/kg, NIH SS (Initial) 4, follow-up 8 days): 2
- NIH SS (Discharge) ([3]; Patient 10*, 75 μg/kg, NIH SS (Initial) 4, follow-up 5 days): 3
- NIH SS (Discharge) ([3]; Patient 11*, 3 μg/kg, NIH SS (Initial) 18, follow-up 7 days): 20
- statistical independence between treated and placebo groups, improved outcome (Fisher's exact test) ([3]; Table 4, patients enrolled at MGH): No statistical significance
- statistical independence between treated and placebo groups, improved outcome (Fisher's exact test) ([3]; Table 5, subset of 7 patients): No statistical significance
